This is an account of results in US20180214428A1, “3-(1H-INDOL-2-YL)-1H-PYRAZOLO[3,4-B]PYRIDINES AND THERAPEUTIC USES THEREOF” (Samumed, LLC, priority 2015, published 2018).

One experiment concerns SW480 colon cancer cells. The experiment in a line: Cell viability assay (CellTiter-Blue) in SW480 colon cancer cells. It counts as cell-based, human. As to conditions: Homo sapiens; for EC50: 96 h, four days, CellTiter-Blue; for inhibition at 10 µM: given for EC50 of >10 μM, read-out: percent inhibition at 10 μM. On the procedure:
Representative compounds were screened using the following assay procedure to assess the effect on cell viability as described below.
Each compound was dissolved in DMSO as a 10 mM stock and used to prepare compound source plates. Serial dilution (1:3, 8-point dose-response curves from 10 μM to 0.0045 μM) and compound transfer was performed using the ECHO 550 (Labcyte, Sunnyvale, Calif.) into 96-well clear bottom, black-walled plates (Corning-Costar).
Approximately 2×10^3 SW480 colon cancer cells were seeded into each well and allowed to incubate in the presence or absence of compound for four days at 37° C./5% CO2. Eight replicates of DMSO-treated cells served as controls and cells treated with compound were performed in duplicate.
After incubation, 20 μL of CellTiter-Blue (Promega) was added to each well allowed to incubate for approximately 3 hours. This reagent was a buffered solution which contains resazurin, metabolically active cells were able to reduce rezarurin (blue) into resorufin (pink) which was highly fluorescent. This measured fluorescence was used as a readout for cell viability.
After incubation, the plates were read at Ex 560 nm Em 590 nm (Cytation 3, BioTek). Dose-response curves were generated and EC50 concentration values were calculated using non-linear regression curve fit in the GraphPad Prism (San Diego, Calif.) or Dotmatics' Studies Software (Bishops Stortford, UK). For EC50 of >10 μM, the percent inhibition at 10 μM is provided.
In general terms: Alamar Blue is a resazurin reagent that responds to reducing activity.

Experiment [1] has as its system primary human fibroblasts derived from IPF patients (LL29 cells). Nature of the experiment: Inhibition of the fibrotic process: αSMA staining in TGF-β1 treated LL29 fibroblasts. The class given is cell-based. Particulars: Homo sapiens, Fibroblast; for EC50: 96 h, TGF-β1 20 ng/mL, 4 days, % αSMA positive cells; for inhibition at 10 µM: given for EC50 of >10 μM, TGF-β1, αSMA, read-out: percent inhibition at 10 μM. The text has this:
Representative compounds were screened using primary human fibroblasts (derived from IPF patients) treated with TGF-β1 to determine their ability to inhibit the fibrotic process.
Primary human fibroblasts derived from IPF patients (LL29 cells) [^1Xiaoqiu Liu, et. al., “Fibrotic Lung Fibroblasts Show Blunted Inhibition by cAMP Due to Deficient cAMP Response Element-Binding Protein Phosphorylation”, Journal of Pharmacology and Experimental Therapeutics (2005), 315(2), 678-687; ^2Watts, K. L., et. al., “RhoA signaling modulates cyclin D1 expression in human lung fibroblasts; implications for idiopathic pulmonary fibrosis”, Respiratory Research (2006), 7(1), 88] were obtained from American Type Culture Collection (ATCC) and expanded in F12 medium supplemented with 15% Fetal Bovine Serum and Penicillin/Streptomycin.
Each compound was dissolved in DMSO as a 10 mM stock and used to prepare compound source plates. Serial dilution (1:2, 11-point dose-response curves from 10 μM to […]) and compound transfer was performed using the ECHO 550 (Labcyte, Sunnyvale, Calif.) into 384-well clear bottom assay plates (Greiner Bio-One) with appropriate DMSO backfill for a final DMSO concentration of 0.1%. LL29 cells are plated at 1,500 cells/well in 80 μL/well F12 medium supplemented with 1% Fetal Bovine Serum. One hour after addition of the cells, TGF-01 (Peprotech; 20 ng/mL) was added to the plates to induce fibrosis (ref. 1 and 2 above). Wells treated with TGF-β1 and containing DMSO were used as controls. Cells were incubated at 37° C. and 5% CO2 for 4 days. Following incubation for 4 days, SYTOX green nucleic acid stain (Life Technologies [Thermo Fisher Scientific]) was added to the wells at a final concentration of 1 μM and incubated at room temperature for 30 min. Cells were then fixed using 4% formaldehyde (Electron Microscopy Sciences), washed 3 times with PBS followed by blocking and permeabilization using 3% Bovine Serum Albumin (BSA; Sigma) and 0.3% Triton X-100 (Sigma) in PBS. Cells were then stained with antibody specific to α-smooth muscle actin (aSMA; Abcam) (ref. 1 and 2 above) in 3% Bovine Serum Albumin (BSA; Sigma) and 0.3% Triton X-100 (Sigma) in PBS, and incubated overnight at 4° C. Cells were then washed 3 times with PBS, followed by incubation with Alexa Flor-647 conjugated secondary antibody (Life Technologies [Thermo Fisher Scientific]) and DAPI at room temperature for 1 hour. Cells were then washed 3 times with PBS and plates were sealed for imaging. αSMA staining was imaged by excitation at 630 nm and emission at 665 nm and quantified using the Compartmental Analysis program on the CellInsight CX5 (Thermo Scientific). Dead or apoptotic cells were excluded from analysis based on positive SYTOX green staining. % of total cells positive for aSMA were counted in each well and normalized to the average of 11 wells treated with TGF-01 on the same plate using Dotmatics' Studies Software. The normalized averages (fold change over untreated) of 3 replicate wells for each compound concentration were used to create dose-responses curves and EC50 values were calculated using non-linear regression curve fit in the Dotmatics' Studies Software. For EC50 of >10 μM, the percent inhibition at 10 μM is provided.

Experiment [2] concerns Wnt activity (Sp5-Luc reporter gene, SW480 colon carcinoma cells). The experiment in a line: Screening assay for Wnt activity: Sp5-Luc reporter gene assay in SW480 cells. The class given is cell-based, human. Particulars: Homo sapiens; for EC50: overnight incubation; for inhibition at 10 µM: given for EC50 of >10 μM, read-out: percent inhibition at 10 μM. From the text: The screening assay for Wnt activity is described as follows. Reporter cell lines can be generated by stably transducing cancer cell lines (e.g., colon cancer) or primary cells (e.g., IEC-6 intestinal cells) with a lentiviral construct that includes a Wnt-responsive promoter driving expression of the firefly luciferase gene.
SW480 colon carcinoma cells were transduced with a lentiviral vector expressing luciferase with a human Sp5 promoter consisting of a sequence of eight TCF/LEF binding sites. SW480 cells stably expressing the Sp5-Luc reporter gene and a hygromycin resistance gene were selected by treatment with 150 μg/mL of hygromycin for 7 days. These stably transduced SW480 cells were expanded in cell culture and used for all further screening activities. Each compound was dissolved in DMSO as a 10 mM stock and used to prepare compound source plates. Serial dilution (1:3, 10-point dose-response curves starting from 10 μM) and compound transfer was performed using the ECHO 550 (Labcyte, Sunnyvale, Calif.) into 384-well white solid bottom assay plates (Greiner Bio-One) with appropriate DMSO backfill for a final DMSO concentration of 0.1%. For Sp5-Luc reporter gene assays, the cells were plated at 4,000 cells/well in 384-well plates with medium containing 1% fetal bovine serum and incubated overnight at 37° C. and 5% CO2. Following incubation, 20 μl of BrightGlo luminescence reagent (Promega) was added to each well of the 384-well assay plates. The plates were placed on an orbital shaker for 2 min and then luminescence was quantified using the Envision (Perkin Elmer) plate reader. Readings were normalized to DMSO only treated cells, and normalized activities were utilized for EC50 calculations using the dose-response log (inhibitor) vs. response variable slope (four parameters) nonlinear regression feature available in GraphPad Prism 5.0 (or Dotmatics). For EC50 of >10 μM, the percent inhibition at 10 μM is provided.
For orientation: A reporter such as luciferase makes a cellular process visible.

Bounds are passed on as bounds.

The EC50 is the concentration at which the effect is half-maximal. For the compound `CN(C)CCNc1cc(F)cc(-c2cccc3[nH]c(-c4n[nH]c5ncc(-c6cncc(CN7CCCCC7)c6)cc45)cc23)c1` [Compound 437, N^1-(3-Fluoro-5-(2-(5-(5-(piperidin-1-ylmethyl)pyridin-3-yl)-1H-pyrazolo[3,4-b]pyridin-3-yl)-1H-indol-4-yl)phenyl)-N^2,N^2-dimethylethane-1,2-diamine], the results for the EC50 (in the experiment on SW480 colon cancer cells; in experiment [1]; in experiment [2]) were 3.86 µM, 5.44 µM and 2.78 µM, respectively.

Turning to `FC1(F)CCN(Cc2cncc(-c3cnc4[nH]nc(-c5cc6c(-c7ccoc7)cccc6[nH]5)c4c3)c2)C1` [Compound 308, 5-(5-((3,3-Difluoropyrrolidin-1-yl)methyl)pyridin-3-yl)-3-(4-(furan-3-yl)-1H-indol-2-yl)-1H-pyrazolo[3,4-b]pyridine], the EC50 with SW480 colon cancer cells was 2.99 µM; in experiment [1] it was 3.21 µM; in experiment [2] it was 1 µM.

By inhibition is commonly meant the share of the control response that was lost under treatment. As to `O=C(Nc1cncc(-c2cnc3[nH]nc(-c4cc5c(-c6ccccc6F)cccc5[nH]4)c3c2)c1)C1CCCC1` [Compound 66, N-(5-(3-(4-(2-Fluorophenyl)-1H-indol-2-yl)-1H-pyrazolo[3,4-b]pyridin-5-yl)pyridin-3-yl)cyclopentanecarboxamide], the EC50 in the experiment on SW480 colon cancer cells is more than 10 µM; in experiment [1], 6.53 µM; in experiment [2], 1.15 µM. Moreover, in the experiment with SW480 colon cancer cells, the inhibition at 10 µM amounted to 53.2%.

On to `c1ccc(CNCc2cncc(-c3cnc4[nH]nc(-c5cc6ccccc6[nH]5)c4c3)c2)cc1` [Compound 250, 1-(5-(3-(1H-Indol-2-yl)-1H-pyrazolo[3,4-b]pyridin-5-yl)pyridin-3-yl)-N-benzylmethanamine], for which the EC50 with SW480 colon cancer cells was more than 10 µM; in experiment [1] it was 2.95 µM; in experiment [2] it was more than 10 µM. For the same compound, the values for the inhibition at 10 µM (in the experiment on SW480 colon cancer cells; in experiment [2]) were 12.2% and 50.9%, respectively.

Take `CCNCc1cncc(-c2cnc3[nH]nc(-c4cc5c(N6CCCCC6)cccc5[nH]4)c3c2)c1` [Compound 150, N-((5-(3-(4-(Piperidin-1-yl)-1H-indol-2-yl)-1H-pyrazolo[3,4-b]pyridin-5-yl)pyridin-3-yl)methyl)ethanamine]: the EC50 in the experiment with SW480 colon cancer cells worked out at 2.83 µM; in experiment [1], 2.74 µM; in experiment [2], 4.64 µM.

Take `FC1(F)CCN(Cc2cncc(-c3cnc4[nH]nc(-c5cc6c(-c7ccncc7)cccc6[nH]5)c4c3)c2)C1` [Compound 118, 5-(5-((3,3-Difluoropyrrolidin-1-yl)methyl)pyridin-3-yl)-3-(4-(pyridin-4-yl)-1H-indol-2-yl)-1H-pyrazolo[3,4-b]pyridine]: the EC50 came out at 4.14 µM in the experiment with SW480 colon cancer cells, 0.76 µM in experiment [1] and 0.708 µM in experiment [2].

With `FC1(F)CCN(Cc2cncc(-c3cnc4[nH]nc(-c5cc6ncccc6[nH]5)c4c3)c2)C1` [Compound 504, 5-(5-((3,3-Difluoropyrrolidin-1-yl)methyl)pyridin-3-yl)-3-(1H-pyrrolo[3,2-b]pyridin-2-yl)-1H-pyrazolo[3,4-b]pyridine], the EC50 is 0.113 µM in the experiment with SW480 colon cancer cells, more than 10 µM in experiment [1] and more than 10 µM in experiment [2]. Further, the inhibition at 10 µM in experiment [1] stood at 14.8%; in experiment [2], 42.4%.

Regarding `CCNCc1cncc(-c2cnc3[nH]nc(-c4cc5c(-c6ccccc6F)cccc5[nH]4)c3c2)c1` [Compound 52, N-((5-(3-(4-(2-Fluorophenyl)-1H-indol-2-yl)-1H-pyrazolo[3,4-b]pyridin-5-yl)pyridin-3-yl)methyl)ethanamine], the EC50 in the experiment with SW480 colon cancer cells came out at 2.7 µM; in experiment [1] it was 0.991 µM; in experiment [2], 5.84 µM.

For the compound `c1ccc(-c2cnc3[nH]nc(-c4cc5c(-c6ccncc6)cccc5[nH]4)c3c2)nc1` [Compound 120, 5-(Pyridin-2-yl)-3-(4-(pyridin-4-yl)-1H-indol-2-yl)-1H-pyrazolo[3,4-b]pyridine], the values for the EC50 (with SW480 colon cancer cells; in experiment [1]; in experiment [2]) were more than 10 µM, 0.642 µM and more than 10 µM, respectively. Further, the inhibition at 10 µM in the experiment with SW480 colon cancer cells was 22.8%; in experiment [2], 16.1%.

Turning to `Fc1cccc(-c2cccc3[nH]c(-c4n[nH]c5ncc(-c6ccncc6)cc45)cc23)c1` [Compound 15, 3-(4-(3-Fluorophenyl)-1H-indol-2-yl)-5-(pyridin-4-yl)-1H-pyrazolo[3,4-b]pyridine], the EC50 in the experiment with SW480 colon cancer cells is more than 10 µM; in experiment [1], 1.7 µM; in experiment [2], more than 10 µM. Besides, the inhibition at 10 µM in the experiment with SW480 colon cancer cells was 31.5%; in experiment [2] it was 26%.

For `CN(C)CCOc1cncc(-c2cnc3[nH]nc(-c4cc5c(-c6cccnc6)cccc5[nH]4)c3c2)c1` [Compound 565, N,N-Dimethyl-2-((5-(3-(4-(pyridin-3-yl)-1H-indol-2-yl)-1H-pyrazolo[3,4-b]pyridin-5-yl)pyridin-3-yl)oxy)ethan-1-amine], the EC50 was 3.78 µM in the experiment on SW480 colon cancer cells, 1.93 µM in experiment [1] and more than 10 µM in experiment [2]. Also, in experiment [2], the inhibition at 10 µM came to 34.5%.

In the case of `O=C(Nc1cncc(-c2cnc3[nH]nc(-c4cc5c(-c6cccc(F)c6)cccc5[nH]4)c3c2)c1)C1CCCCC1` [Compound 19, N-(5-(3-(4-(3-Fluorophenyl)-1H-indol-2-yl)-1H-pyrazolo[3,4-b]pyridin-5-yl)pyridin-3-yl)cyclohexanecarboxamide], the EC50 was more than 10 µM with SW480 colon cancer cells, more than 10 µM in experiment [1] and 1.48 µM in experiment [2]. Also, the inhibition at 10 µM came to 11.1% with SW480 colon cancer cells and 28.9% in experiment [1].
